Measured values from article PMC9945734 (BMC Medicine, 2023).

Assays:
[1] = tested on: DU 145 (KLF5 null) cells expressing KLF5^K369Q; assay: CCK-8 cell viability assay; assay type: cell-based, human; conditions: for cell number: DU 145-KQ
Method: (§1) According to the manufacturer's instructions, cell viability was measured using a kit from Beyotime Biotechnology. Briefly, cells were seeded onto 96-well plates at 5 × 10^3 cells per well, incubated overnight, and then treated for 48 h with drugs at 0, 0.02, 0.05, 0.14, 0.41, 1.23, 3.7, 11.1, 33.3, and 100 μM. Four drugs were analyzed: furagin, nifuratel, nitazoxanide, and retapamulin. At the end of drug treatment, the medium was removed, the CCK-8 solution was added into each well at 100 μL/well and incubated for 1.5 h at 37°C, and the optical density (OD) was measured at 450 nm using a microplate reader (BioTek).
(§2) We also tested a wider range of NTZ concentrations in PC-3-KQ and DU 145-KQ cells using the CCK-8 assay by seeding 2 × 10^3 cells and 2.5 × 10^3 cells onto each well of 96-well plates. PC-3-KQ cells were treated with NTZ at 0, 0.01, 0.1, […], 2.5, and 5 μM, while DU 145-KQ cells were treated with NTZ at 0, 0.01, 0.1, 5, 10, and 20 μM for 0, 24, 48, and 72 h. The number of viable cells was determined using the CCK-8 solution as described above.

[2] = tested on: PC-3 (KLF5 null) cells expressing KLF5^K369Q; assay: CCK-8 cell viability assay; assay type: cell-based, human; conditions: for cell number: PC-3-KQ
Method: as §1, §2

[3] = tested on: PC-3 (KLF5 null) cells expressing KLF5; assay: CCK-8 cell viability assay; assay type: cell-based; conditions: Homo sapiens, CCK-8, 48 h
Method: as §1

[4] = tested on: DU 145 (KLF5 null) cells expressing KLF5; assay: CCK-8 cell viability assay; assay type: cell-based; conditions: Homo sapiens, CCK-8, 48 h
Method: as §1

[5] = tested on: DU 145 (KLF5 null) cells expressing KLF5^K369R; assay: CCK-8 cell viability assay; assay type: cell-based; conditions: Homo sapiens, CCK-8, 48 h
Method: as §1

[6] = tested on: PC-3 (KLF5 null) cells expressing KLF5^K369R; assay: CCK-8 cell viability assay; assay type: cell-based; conditions: Homo sapiens, CCK-8, 48 h
Method: as §1

[7] = tested on: osteoclasts in mouse femurs; assay: TRAP staining of bone tissue sections; assay type: in vivo, Balb/c nude mice; conditions: compared to the vehicle group
Method: The procedure for TRAP staining in tissues was described in our previous study. Briefly, deparaffinized and hydrated bone sections were incubated in 0.2 M acetic acid for 20 min and then in 0.2 M acetic acid containing the fast red TR salt (1.1 mg/mL) and naphthol AS-MX phosphate (0.5 mg/mL) for about 45 min at 37°C. When TRAP-positive cells turn red, as monitored using microscopy, slides were counterstained with hematoxylin and mounted with coverslips using glycerin. Slides were then scanned and analyzed as described above.

[8] = tested on: PC-3-KLF5, PC-3-KQ, DU 145-KLF5 and DU 145-KQ cell spheroids; assay: 3D spheroid invasion assay, KLF5^K369Q- versus KLF5-expressing cells; assay type: cell-based, human; conditions: 0-10 μM
Method: The invasion assay was performed as previously described. Briefly, PC-3-KQ cells at 80-90% confluency were plated onto 384-well round bottom plates with ultra-low attachment (Cat #: 4516, Corning) at 500 cells per well in 80 μL medium. The plates were then centrifuged at 320 g for 4 min to cluster cells in the bottom of wells and incubated for 3 days. On the fourth day, 40 μL medium was removed from each well, 40 μL of the matrigel-medium mixture was added to each well, and cells were cultured for another 3 days. The matrigel (Cat #: 354234, Corning) was from Corning, and the medium contained 1% FBS. At the end of the incubation, images were taken using a phase contrast microscope (Eclipse Ti2, Nikon, Tokyo, Japan) with 10× object lenses, and the total area of cells and the core sphere area of cells (Fig. 1a) were measured using the Image J software. The invading area was calculated using the following formula: invasion area = total area of cells – core sphere area.
Figure S2. The effect of NTZ on acetylated (KQ) and non-mutated KLF5 cell invasion. (a) The effect of NTZ on the invasion of PC-3-KLF5, PC-3-KQ, DU 145-KLF5 and DU 145-KQ cell spheroids at different concentrations (0-10 μM) and quantitative analysis (b). *, p < 0.05; ***, p < 0.001.

[9] = by inhibiting RANKL-induced osteoclastogenesis; cited from earlier work
[10] = lower concentrations (0–0.1 μM), 0 to 72 h

In the case of `CC(=O)Oc1ccccc1C(=O)Nc1ncc([N+](=O)[O-])s1` [Nitazoxanide], the cell number ([1]; higher concentrations (up to 20 μM)) is reported as “decreased cell number”, the cell number [1, 10] is reported as “did not affect cell number” and the IC50 ([1]; Homo sapiens, DU 145 (KLF5 null), KLF5^K369Q, CCK-8, 48 h) is reported as 22.7 ± 2.3 µM. For the same molecule, the IC50 ([2]; Homo sapiens, PC-3 (KLF5 null), KLF5^K369Q, CCK-8, 48 h) was 5.4 ± 0.5 µM, the cell number ([2]; higher concentrations (up to 5 μM)) was “decreased cell number” and the cell number [2, 10] was “did not affect cell number”. The IC50 [3] was 7 ± 0.7 µM, the IC50 [4] was 55.6 ± 1.4 µM and the IC50 [5] was 49.2 ± 10.1 µM. For the same molecule, the IC50 [6] was 11.4 ± 1 µM, the “number of TRAP^+ cells in mouse femurs” value [7] was “significantly reduced the number of TRAP^+ cells” and the “invasion inhibition in KLF5^K369Q- versus KLF5-expressing cells” value [8] was “more potent in invasion inhibition”. For the same molecule, the “bone loss in ovariectomized mice” value [9] was “reduces bone loss”.
